Laboratory results reported in the NIST ThermoML archive (doi:10.1021/je800110r).
Numbers after ± are expanded uncertainties.

Settings: 313.14 K, Liquid, Vibrating tube method

CCCCCCCCCC [decane]
Settings | mass density [kg/m3]
15552 kPa | 727.4 ± 2
15582 kPa | 727.2 ± 2
15613 kPa | 727.3 ± 2
15637 kPa | 727.3 ± 2
15663 kPa | 727.3 ± 2
15908 kPa | 727.6 ± 2
15941 kPa | 727.5 ± 2
15972 kPa | 727.6 ± 2
16007 kPa | 727.6 ± 2
16031 kPa | 727.6 ± 2
16067 kPa | 727.7 ± 2
16091 kPa | 727.6 ± 2
16114 kPa | 727.7 ± 2
16151 kPa | 727.8 ± 2
16180 kPa | 727.7 ± 2
16204 kPa | 727.8 ± 2
16241 kPa | 727.8 ± 2
16273 kPa | 727.8 ± 2
16306 kPa | 727.9 ± 2
16338 kPa | 727.9 ± 2
16359 kPa | 727.8 ± 2
16381 kPa | 727.9 ± 2
16402 kPa | 728 ± 2
16427 kPa | 727.9 ± 2
16452 kPa | 727.9 ± 2
16478 kPa | 728 ± 2
16507 kPa | 728 ± 2
16537 kPa | 728 ± 2
16566 kPa | 728 ± 2
16587 kPa | 728 ± 2
16618 kPa | 728.1 ± 2
16648 kPa | 728.1 ± 2
16683 kPa | 728.1 ± 2
16721 kPa | 728.2 ± 2
16748 kPa | 728.1 ± 2
16784 kPa | 728.2 ± 2
16824 kPa | 728.1 ± 2
16860 kPa | 728.2 ± 2
16883 kPa | 728.2 ± 2
16907 kPa | 728.3 ± 2
16935 kPa | 728.3 ± 2
16975 kPa | 728.4 ± 2
16996 kPa | 728.4 ± 2
17023 kPa | 728.3 ± 2
17046 kPa | 728.4 ± 2
17070 kPa | 728.3 ± 2
17101 kPa | 728.4 ± 2
17124 kPa | 728.5 ± 2
17149 kPa | 728.5 ± 2
17170 kPa | 728.4 ± 2
17191 kPa | 728.4 ± 2
17222 kPa | 728.6 ± 2
17243 kPa | 728.6 ± 2
17264 kPa | 728.5 ± 2
17296 kPa | 728.6 ± 2
17320 kPa | 728.5 ± 2
17348 kPa | 728.5 ± 2
17377 kPa | 728.5 ± 2
17408 kPa | 728.6 ± 2
17430 kPa | 728.7 ± 2
17455 kPa | 728.7 ± 2
17481 kPa | 728.6 ± 2
17502 kPa | 728.8 ± 2
17528 kPa | 728.7 ± 2
17557 kPa | 728.8 ± 2
17609 kPa | 728.8 ± 2
17763 kPa | 728.9 ± 2
17790 kPa | 728.9 ± 2
17820 kPa | 729 ± 2
17842 kPa | 729 ± 2
17877 kPa | 729.1 ± 2
17905 kPa | 729 ± 2
17931 kPa | 729.1 ± 2
17958 kPa | 729 ± 2
17988 kPa | 729.1 ± 2
18011 kPa | 729.1 ± 2
18042 kPa | 729.1 ± 2
18062 kPa | 729.2 ± 2
18096 kPa | 729.1 ± 2
18131 kPa | 729.2 ± 2
18170 kPa | 729.2 ± 2
18202 kPa | 729.2 ± 2
18226 kPa | 729.2 ± 2
18249 kPa | 729.2 ± 2
18273 kPa | 729.3 ± 2
18301 kPa | 729.3 ± 2
18325 kPa | 729.4 ± 2
18346 kPa | 729.4 ± 2
18374 kPa | 729.4 ± 2
18403 kPa | 729.5 ± 2
18439 kPa | 729.3 ± 2
18460 kPa | 729.4 ± 2
18494 kPa | 729.4 ± 2
18522 kPa | 729.5 ± 2
18544 kPa | 729.6 ± 2
18569 kPa | 729.5 ± 2
18600 kPa | 729.6 ± 2
18628 kPa | 729.5 ± 2
18646 kPa | 729.5 ± 2
18671 kPa | 729.5 ± 2
18697 kPa | 729.6 ± 2
18722 kPa | 729.5 ± 2
18748 kPa | 729.6 ± 2
18781 kPa | 729.6 ± 2
18812 kPa | 729.7 ± 2
18842 kPa | 729.7 ± 2
18869 kPa | 729.7 ± 2
18894 kPa | 729.8 ± 2
18927 kPa | 729.8 ± 2
18953 kPa | 729.7 ± 2
18979 kPa | 729.8 ± 2
19001 kPa | 729.8 ± 2
19027 kPa | 729.8 ± 2
19054 kPa | 729.8 ± 2
19076 kPa | 729.8 ± 2
19102 kPa | 729.9 ± 2
19133 kPa | 729.9 ± 2
19152 kPa | 730 ± 2
19187 kPa | 730 ± 2
19210 kPa | 729.9 ± 2
19237 kPa | 729.9 ± 2
19256 kPa | 730 ± 2
19287 kPa | 730.1 ± 2
19326 kPa | 730 ± 2
19353 kPa | 730 ± 2
19380 kPa | 730.1 ± 2
19412 kPa | 730.1 ± 2
19441 kPa | 730.2 ± 2
19466 kPa | 730.2 ± 2
19487 kPa | 730.2 ± 2
19512 kPa | 730.2 ± 2
19546 kPa | 730.2 ± 2
19564 kPa | 730.2 ± 2
19582 kPa | 730.2 ± 2
19606 kPa | 730.3 ± 2
19634 kPa | 730.2 ± 2
19655 kPa | 730.3 ± 2
19686 kPa | 730.3 ± 2
19711 kPa | 730.4 ± 2
19727 kPa | 730.4 ± 2
19745 kPa | 730.4 ± 2
19773 kPa | 730.4 ± 2
19804 kPa | 730.3 ± 2
19823 kPa | 730.5 ± 2
19848 kPa | 730.4 ± 2
19867 kPa | 730.5 ± 2
19889 kPa | 730.5 ± 2
19908 kPa | 730.5 ± 2
19940 kPa | 730.5 ± 2
19959 kPa | 730.6 ± 2
19985 kPa | 730.5 ± 2
20008 kPa | 730.6 ± 2
20028 kPa | 730.6 ± 2
20055 kPa | 730.6 ± 2
20074 kPa | 730.5 ± 2
20097 kPa | 730.6 ± 2
20126 kPa | 730.4 ± 2
20150 kPa | 730.6 ± 2
20172 kPa | 730.7 ± 2
20205 kPa | 730.7 ± 2
20221 kPa | 730.7 ± 2
20238 kPa | 730.8 ± 2
20257 kPa | 730.7 ± 2
20287 kPa | 730.8 ± 2
20308 kPa | 730.7 ± 2
20329 kPa | 730.8 ± 2
20385 kPa | 730.8 ± 2
20430 kPa | 730.9 ± 2
20460 kPa | 730.9 ± 2
20488 kPa | 730.9 ± 2
20511 kPa | 731 ± 2
20535 kPa | 730.9 ± 2
20586 kPa | 731 ± 2
20611 kPa | 731 ± 2
20632 kPa | 730.9 ± 2
20663 kPa | 731.1 ± 2
20687 kPa | 731.1 ± 2
20708 kPa | 731 ± 2
20732 kPa | 731.2 ± 2
20767 kPa | 731.1 ± 2
20791 kPa | 731.2 ± 2
20819 kPa | 731.1 ± 2
20850 kPa | 731.2 ± 2
20872 kPa | 731.1 ± 2
20900 kPa | 731.1 ± 2
20932 kPa | 731.4 ± 2
21014 kPa | 731.3 ± 2
21046 kPa | 731.3 ± 2
21075 kPa | 731.3 ± 2
21144 kPa | 731.3 ± 2
21163 kPa | 731.4 ± 2
21200 kPa | 731.3 ± 2
21226 kPa | 731.6 ± 2
21308 kPa | 731.5 ± 2
21387 kPa | 731.5 ± 2
21414 kPa | 731.7 ± 2
21440 kPa | 731.6 ± 2
21471 kPa | 731.6 ± 2
21495 kPa | 731.7 ± 2
21516 kPa | 731.6 ± 2
21536 kPa | 731.6 ± 2
21563 kPa | 731.7 ± 2
21597 kPa | 731.7 ± 2
21621 kPa | 731.6 ± 2
21642 kPa | 731.8 ± 2
21663 kPa | 731.8 ± 2
21686 kPa | 731.8 ± 2
21728 kPa | 731.9 ± 2
21752 kPa | 731.8 ± 2
21771 kPa | 731.8 ± 2
21827 kPa | 731.8 ± 2
21852 kPa | 731.9 ± 2
21883 kPa | 731.9 ± 2
21911 kPa | 731.9 ± 2
21932 kPa | 731.9 ± 2
21953 kPa | 731.9 ± 2
21985 kPa | 731.9 ± 2
22006 kPa | 731.9 ± 2
22034 kPa | 732 ± 2
22060 kPa | 732.1 ± 2
22083 kPa | 732.1 ± 2
22115 kPa | 732 ± 2
22140 kPa | 732.1 ± 2
22165 kPa | 732 ± 2
22198 kPa | 732.2 ± 2
22216 kPa | 732 ± 2
22245 kPa | 732.2 ± 2
22263 kPa | 732.1 ± 2
22292 kPa | 732.2 ± 2
22321 kPa | 732.2 ± 2
22348 kPa | 732.2 ± 2
22374 kPa | 732.2 ± 2
22400 kPa | 732.2 ± 2
22426 kPa | 732.3 ± 2
22522 kPa | 732.3 ± 2
22577 kPa | 732.3 ± 2
22645 kPa | 732.5 ± 2
22672 kPa | 732.5 ± 2
22699 kPa | 732.4 ± 2
22729 kPa | 732.6 ± 2
22756 kPa | 732.5 ± 2
22794 kPa | 732.6 ± 2
22828 kPa | 732.6 ± 2
22855 kPa | 732.6 ± 2
22882 kPa | 732.5 ± 2
22904 kPa | 732.6 ± 2
22939 kPa | 732.7 ± 2
23398 kPa | 733 ± 2
23435 kPa | 732.9 ± 2
23468 kPa | 732.9 ± 2
23492 kPa | 733 ± 2
23529 kPa | 733 ± 2
23554 kPa | 733 ± 2
23579 kPa | 733.1 ± 2
23611 kPa | 733.2 ± 2
23636 kPa | 733 ± 2
23669 kPa | 733.1 ± 2
23699 kPa | 733.2 ± 2
23732 kPa | 733.2 ± 2
23758 kPa | 733.2 ± 2
23792 kPa | 733.3 ± 2
23821 kPa | 733.4 ± 2
23851 kPa | 733.2 ± 2
23873 kPa | 733.2 ± 2
23894 kPa | 733.3 ± 2
23923 kPa | 733.4 ± 2
23954 kPa | 733.4 ± 2.1
23992 kPa | 733.4 ± 2.1
24027 kPa | 733.4 ± 2.1
24054 kPa | 733.4 ± 2.1
24081 kPa | 733.5 ± 2.1
24116 kPa | 733.5 ± 2.1
24142 kPa | 733.4 ± 2.1
